Experimental data published in patent US7968526B2, “Antisense oligonucleotides directed to ribonucleotide reductase R2 and uses thereof in the treatment of cancer” (Lorus Therapeutics Inc., priority 2003, dated 2011).
Entries after “also recorded” stand apart in the source; their conditions may differ.

How the values were obtained:
[1] = test system: A2058 human melanoma cells; experiment: A2058 melanoma xenograft in CD-1 nude mice, combination with DTIC (1.6); assay type: in vivo, human cells in mice; conditions: SEQ ID NO:1 10 mg/kg i.v. every other day, DTIC 80 mg/kg i.v. days 6-10
Procedure: After 52 days the mice were sacrificed and the tumours weighed. […] Mitoxantrone was administered intravenously once at the beginning of the treatments at a dose of 2 mg/kg (FIG. 4A) or once a week for four weeks at a reduced dose of 0.8 mg/kg (FIG. 4B). All treatments were stopped at day 50 (FIG. 4A) or 48 (FIG. 4B), respectively. […] Mitoxantrone was administered intravenously once at the beginning of the treatments at a dose of 2 mg/kg (FIG. 5A) or once a week for four weeks at a reduced dose of 0.8 mg/kg (FIG. 5B). All treatments were stopped at day 42 (FIG. 5A) or 38 (FIG. 5B), respectively. […] A2058 is a metastatic melanoma cell line. […] All treatments were stopped at day 24. […] Taxol was administered intravenously once a week at a dose of 10 mg/kg for three (FIG. 7A) or four weeks (FIG. 7C). Doxorubicin was administered intravenously once a week at a dose of 5 mg/kg for first three weeks (FIG. 7A) or for two weeks (FIG. 7C). All treatments were stopped at day 33 (FIG. 7A) or at day 26 (FIG. 7C), respectively. […] In FIG. 7C, antitumour activities were estimated by the inhibition of tumour volume, which was measured with calipers. Each point represents mean tumour volume calculated from 10 animals per experimental group. […] Taxol was administered intravenously once a week for first three weeks and intraperitoneally once a week for next two weeks at a dose of 10 mg/kg. Cisplatin was administered intravenously once a week for first three weeks and intraperitoneally once a week for next two weeks at a dose of 4 mg/kg. All treatments were stopped at day 40. Antitumour activities were estimated by the inhibition of tumour volume, which was measured with caliper. Each point represents mean tumour volume calculated from 9 animals per experimental group.

[2] = test system: MDA-CDDP-S4 human in vivo-selected Cisplatin-resistant breast adenocarcinoma cells; experiment: MDA-CDDP-S4 Cisplatin-resistant breast adenocarcinoma, fat pad, CB-17 SCID mice, combination with Taxol (2.4); set-up: species or system human cells in mice; conditions: SEQ ID NO:1 10 mg/kg i.v. every other day, Taxol 10 mg/kg i.p. weekly; for Tumour weight as % of saline control: MDA-CDDP-S4 (breast), Cisplatin resistant, SCID
Procedure: BxPC-3 is a gemcitabine resistant call line. […] Gemcitabine was administered intravenously every three days at a dose of 100 mg/kg. Antitumour activities were estimated by the inhibition of tumour volume, which was measured with caliper. Each point represents mean tumour volume calculated from 10 animals per experimental group. […] Hela S3 is a hydroxyurea resistant cell line. […] Hydroxyurea was administered intraperitoneally every day at a dose of 250 mg/kg for 10 days. Cisplatin was administered intravenously once a week for three weeks at a dose of 4 mg/kg. Antitumour activities were estimated by the inhibition of tumour volume, which was measured with caliper. Each point represents mean tumour volume calculated from 10 animals per experimental group. […] Cisplatin was administered intravenously once a week for three weeks at a dose of 4 mg/kg. Taxol was administered intravenously once a week for three weeks at a dose of 10 mg/kg. Antitumour activities were estimated by the inhibition of tumour volume, which was measured with caliper. Each point represents mean tumour volume calculated from 10 animals per experimental group. […] Taxol was administered i.p. once a week at a dose of 10 mg/kg. Antitumour activities were estimated by the inhibition of tumour volume (FIG. 12A), which was measured with calipers. Each point represents mean tumour volume calculated from 10 animals per experimental group. Animals were sacrificed and tumour weights taken at the end of the study (FIG. 12C). […] Cisplatin was administered intravenously once a week for four weeks at a dose of 4 mg/kg. Taxol was administered intravenously once a week for four weeks at a dose of 20 mg/kg. Antitumour activities were estimated by the inhibition of tumour volume, which was measured with caliper. Each point represents mean tumour volume calculated from 9-10 animals per experimental group. […] Cisplatin was administered intravenously once a week for four weeks at a dose of 4 mg/kg. Antitumour activities were estimated by the inhibition of tumour volume, which was measured with caliper. Each point represents mean tumour volume calculated from 10 animals per experimental group. At the end of the study the animals were sacrificed and tumours weighed. […] Taxol was administered i.p. once a week at a dose of 10 mg/kg. Anti-tumour activity was estimated by the inhibition of tumour volume, which was measured with caliper. Each point represents mean tumour volume calculated from 10 animals per experimental group. In addition animals were sacrificed and tumour weights taken at the end of the study. […] CPT-11 was administered i.p. for 5 days at a dose of 20 mg/kg/day. Antitumour activities were estimated by the inhibition of tumour volume, which was measured with caliper. Each point represents mean tumour volume calculated from 10 animals per experimental group. Tumour weights were measured after animals were sacrificed at the end of the treatment. These cells are not resistant to CPT-11 which was used as a positive control.

5′-GGCTAAATCGCTCCACCAAG-3′ (all phosphorothioate, sugars by position and methylation of C not given here) [SEQ ID NO: 1, fully phosphorothioated antisense oligonucleotide that hybridizes to the coding region of R2 mRNA]
Tumour weight as % of saline control ([1]; A2058 (melanoma), CD-1): 20%
Antitumour effect (tumour weight, FIG. 6) ([1]; A2058, CD-1 nude mice): significant delay of tumour growth compared to saline control; also recorded: superior to the inhibitory effects observed with DTIC alone
Tumour weight as % of saline control ([2]; first of two printed values (study and repeat)): 18%
Tumour weight as % of saline control ([2]; second of two printed values (study and repeat)): 41%
Antitumour effect (FIG. 12) ([2]; MDA-CDDP-S4 Cisplatin-resistant, CB-17 SCID mice): significant reduction of tumour weight compared to saline control; also recorded: superior to the inhibitory effects observed with Taxol
